Laboratory results as given in patent publication US6605145B1, “Alkylformamide surfactants” (Air Products and Chemicals, Inc., priority 1999, dated 2003).
Values belong to the compound of their own block, whether it stands above or below them.

Assays:
Type in all cases: physicochemical
[1] = Solubility limit in water from plot of ln(conc.) vs surface tension at 0.1 b/s
Excerpt: A plot of In(conc.) vs surface tension observed at 0.1 b/s was used to determine that the solubility limit of this material is 0.1 wt %.

[2] = Dynamic surface tension of aqueous solutions, maximum bubble pressure method
Excerpt: where R is a C5 to C11 alkyl group, provided that the organic compound is not an azole derivative fungicide. […] The maximum-bubble-pressure method of measuring surface tension is described in Langmuir 1986, 2, 428-432, which is incorporated by reference.
In the following Examples dynamic surface tension data were obtained for aqueous solutions of various compounds using the maximum bubble pressure method at bubble rates from 0.1 bubbles/second (b/s) to 20 b/s. […] In practical terms, high bubble rates correspond to high printing speeds in lithographic printing, high spray or roller velocities in coating applications, and rapid application rates for agricultural products.

[3] = Foam test based upon ASTM D 1173-53
Experimental: The foaming properties of 0.1 wt % solutions of the N-octylpyrrolidone and the alkylformamide surfactants of this invention were examined using a procedure based upon ASTM D 1173-53. In this test, a 0.1 wt % solution of the surfactant is added from an elevated foam pipette to a foam receiver containing the same solution. The foam height is measured at the completion of the addition (“Initial Foam Height”) and the time required for the foam to dissipate at the air-liquid interface (“Time to 0 Foam”) is recorded. This test provides a comparison between the foaming characteristics of various surfactant solutions. In general, in coatings, inks, and agricultural formulations, foam is undesirable because it complicates handling and can lead to coating and print defects, and to inefficient application of agricultural materials.

solubility limit [1]: 0.2 wt % | Dynamic Surface Tension ([2]; 0.03 wt % in water, 0.1 b/s): 51.1 dyne/cm | Dynamic Surface Tension ([2]; 0.03 wt % in water, 1 b/s): 53.0 dyne/cm | Dynamic Surface Tension ([2]; 0.03 wt % in water, 6 b/s): 57.0 dyne/cm | Dynamic Surface Tension ([2]; 0.03 wt % in water, 15 b/s): 60.1 dyne/cm | Dynamic Surface Tension ([2]; 0.03 wt % in water, 20 b/s): 60.3 dyne/cm | Dynamic Surface Tension ([2]; 0.05 wt % in water, 0.1 b/s): 45.9 dyne/cm | Dynamic Surface Tension ([2]; 0.05 wt % in water, 1 b/s): 47.2 dyne/cm | Dynamic Surface Tension ([2]; 0.05 wt % in water, 6 b/s): 49.9 dyne/cm | Dynamic Surface Tension ([2]; 0.05 wt % in water, 15 b/s): 52.6 dyne/cm | Dynamic Surface Tension ([2]; 0.05 wt % in water, 20 b/s): 53.3 dyne/cm | Dynamic Surface Tension ([2]; 0.07 wt % in water, 0.1 b/s): 42.8 dyne/cm | Dynamic Surface Tension ([2]; 0.07 wt % in water, 1 b/s): 43.8 dyne/cm | Dynamic Surface Tension ([2]; 0.07 wt % in water, 6 b/s): 46.0 dyne/cm | Dynamic Surface Tension ([2]; 0.07 wt % in water, 15 b/s): 48.3 dyne/cm | Dynamic Surface Tension ([2]; 0.07 wt % in water, 20 b/s): 49.1 dyne/cm | Dynamic Surface Tension ([2]; 0.1 wt % in water, 0.1 b/s): 39.1 dyne/cm | Dynamic Surface Tension ([2]; 0.1 wt % in water, 1 b/s): 39.9 dyne/cm | Dynamic Surface Tension ([2]; 0.1 wt % in water, 6 b/s): 41.6 dyne/cm | Dynamic Surface Tension ([2]; 0.1 wt % in water, 15 b/s): 43.5 dyne/cm | Dynamic Surface Tension ([2]; 0.1 wt % in water, 20 b/s): 44.2 dyne/cm | Dynamic Surface Tension ([2]; 0.2 wt % in water, 0.1 b/s): 32.1 dyne/cm | Dynamic Surface Tension ([2]; 0.2 wt % in water, 1 b/s): 32.4 dyne/cm | Dynamic Surface Tension ([2]; 0.2 wt % in water, 6 b/s): 33.3 dyne/cm | Dynamic Surface Tension ([2]; 0.2 wt % in water, 15 b/s): 34.9 dyne/cm | Dynamic Surface Tension ([2]; 0.2 wt % in water, 20 b/s): 35.5 dyne/cm
SMILES: CCCCC(CC)CNC=O (stereo not drawn) [2-EHF, 2-ethylhexylformamide]

Dynamic Surface Tension ([2]; 0.003 wt % in water, 0.1 b/s): 65.1 dyne/cm | Dynamic Surface Tension ([2]; 0.003 wt % in water, 1 b/s): 68.6 dyne/cm | Dynamic Surface Tension ([2]; 0.003 wt % in water, 6 b/s): 70.8 dyne/cm | Dynamic Surface Tension ([2]; 0.003 wt % in water, 15 b/s): 71.4 dyne/cm | Dynamic Surface Tension ([2]; 0.003 wt % in water, 20 b/s): 71.1 dyne/cm | Dynamic Surface Tension ([2]; 0.03 wt % in water, 0.1 b/s): 46.5 dyne/cm | Dynamic Surface Tension ([2]; 0.03 wt % in water, 1 b/s): 49.3 dyne/cm | Dynamic Surface Tension ([2]; 0.03 wt % in water, 6 b/s): 54.4 dyne/cm | Dynamic Surface Tension ([2]; 0.03 wt % in water, 15 b/s): 58.7 dyne/cm | Dynamic Surface Tension ([2]; 0.03 wt % in water, 20 b/s): 59.6 dyne/cm | Dynamic Surface Tension ([2]; 0.07 wt % in water, 0.1 b/s): 35.2 dyne/cm | Dynamic Surface Tension ([2]; 0.07 wt % in water, 1 b/s): 36.6 dyne/cm | Dynamic Surface Tension ([2]; 0.07 wt % in water, 6 b/s): 39.6 dyne/cm | Dynamic Surface Tension ([2]; 0.07 wt % in water, 15 b/s): 43.0 dyne/cm | Dynamic Surface Tension ([2]; 0.07 wt % in water, 20 b/s): 43.9 dyne/cm | Dynamic Surface Tension ([2]; 0.1 wt % in water, 0.1 b/s): 29.9 dyne/cm | Dynamic Surface Tension ([2]; 0.1 wt % in water, 1 b/s): 31.0 dyne/cm | Dynamic Surface Tension ([2]; 0.1 wt % in water, 1 b/s, listed as n-octylpyrrolidone): below 30 dyne/cm | Dynamic Surface Tension ([2]; 0.1 wt % in water, 6 b/s): 33.4 dyne/cm | Dynamic Surface Tension ([2]; 0.1 wt % in water, 15 b/s): 36.5 dyne/cm | Dynamic Surface Tension ([2]; 0.1 wt % in water, 20 b/s): 37.2 dyne/cm | Dynamic Surface Tension ([2]; 0.1 wt % in water, 20 b/s, listed as n-octylpyrrolidone): below 40 dyne/cm | Dynamic Surface Tension ([2]; 0.21 wt % in water, 0.1 b/s): 27.6 dyne/cm | Dynamic Surface Tension ([2]; 0.21 wt % in water, 1 b/s): 27.8 dyne/cm | Dynamic Surface Tension ([2]; 0.21 wt % in water, 6 b/s): 28.4 dyne/cm | Dynamic Surface Tension ([2]; 0.21 wt % in water, 15 b/s): 30.0 dyne/cm | Dynamic Surface Tension ([2]; 0.21 wt % in water, 20 b/s): 30.6 dyne/cm | Initial Foam Height ([3]; 0.1 wt % solution): 4.0 cm | cm Foam after 5 min ([3]; 0.1 wt % solution): 1.0 cm | foaming of aqueous solutions (in words) [3]: quite foamy
SMILES: CCCCCCCCN1CCCC1=O [N-n-Octylpyrrolidone, reference compound]

Initial Foam Height ([3]; 0.1 wt % solution): 0.9 cm | Time to 0 Foam ([3]; 0.1 wt % solution): 5 s
SMILES: CCCCCCCCNC=O [drawing 13, n-octylformamide]

Initial Foam Height ([3]; 0.1 wt % solution): 0.5 cm | Time to 0 Foam ([3]; 0.1 wt % solution): 4 s
SMILES: CCCCC(CC)CNC=O (stereo not drawn) [drawing 14, 2-ethylhexylformamide]

Initial Foam Height ([3]; 0.1 wt % solution): 2.4 cm | Time to 0 Foam ([3]; 0.1 wt % solution): 12 s
SMILES: CCCCCCCCCCNC=O [drawing 16, n-decylformamide]

solubility limit [1]: 0.01 wt % | Dynamic Surface Tension ([2]; 0.005 wt % in water, 0.1 b/s): 53.4 dyne/cm | Dynamic Surface Tension ([2]; 0.005 wt % in water, 1 b/s): 67.1 dyne/cm | Dynamic Surface Tension ([2]; 0.005 wt % in water, 6 b/s): 70.6 dyne/cm | Dynamic Surface Tension ([2]; 0.005 wt % in water, 15 b/s): 72.5 dyne/cm | Dynamic Surface Tension ([2]; 0.005 wt % in water, 20 b/s): 73.1 dyne/cm | Dynamic Surface Tension ([2]; 0.007 wt % in water, 0.1 b/s): 36.3 dyne/cm | Dynamic Surface Tension ([2]; 0.007 wt % in water, 1 b/s): 59.2 dyne/cm | Dynamic Surface Tension ([2]; 0.007 wt % in water, 6 b/s): 70.3 dyne/cm | Dynamic Surface Tension ([2]; 0.007 wt % in water, 15 b/s): 72.3 dyne/cm | Dynamic Surface Tension ([2]; 0.007 wt % in water, 20 b/s): 72.9 dyne/cm | Dynamic Surface Tension ([2]; 0.01 wt % in water, 0.1 b/s): 32.4 dyne/cm | Dynamic Surface Tension ([2]; 0.01 wt % in water, 1 b/s): 55.4 dyne/cm | Dynamic Surface Tension ([2]; 0.01 wt % in water, 6 b/s): 69.1 dyne/cm | Dynamic Surface Tension ([2]; 0.01 wt % in water, 15 b/s): 72.5 dyne/cm | Dynamic Surface Tension ([2]; 0.01 wt % in water, 20 b/s): 72.8 dyne/cm
SMILES: CCCCCCCCCCNC=O [n-DF, n-decylformamide]

solubility limit [1]: 1.1 wt % | Dynamic Surface Tension ([2]; 0.1 wt % in water, 0.1 b/s (Table 4)): 56.0 dynes/cm | Dynamic Surface Tension ([2]; 0.1 wt % in water, 1 b/s (Table 4)): 57.6 dynes/cm | Dynamic Surface Tension ([2]; 0.1 wt % in water, 6 b/s (Table 4)): 58.8 dynes/cm | Dynamic Surface Tension ([2]; 0.1 wt % in water, 15 b/s (Table 4)): 60.3 dynes/cm | Dynamic Surface Tension ([2]; 0.1 wt % in water, 20 b/s (Table 4)): 60.6 dynes/cm | Dynamic Surface Tension ([2]; 0.5 wt % in water, 0.1 b/s): 37.2 dynes/cm | Dynamic Surface Tension ([2]; 0.5 wt % in water, 1 b/s): 38.0 dynes/cm | Dynamic Surface Tension ([2]; 0.5 wt % in water, 6 b/s): 38.8 dynes/cm | Dynamic Surface Tension ([2]; 0.5 wt % in water, 15 b/s): 40.1 dynes/cm | Dynamic Surface Tension ([2]; 0.5 wt % in water, 20 b/s): 40.3 dynes/cm | Dynamic Surface Tension ([2]; 1.0 wt % in water, 0.1 b/s): 28.4 dynes/cm | Dynamic Surface Tension ([2]; 1.0 wt % in water, 1 b/s): 29.0 dynes/cm | Dynamic Surface Tension ([2]; 1.0 wt % in water, 6 b/s): 29.6 dynes/cm | Dynamic Surface Tension ([2]; 1.0 wt % in water, 15 b/s): 30.1 dynes/cm | Dynamic Surface Tension ([2]; 1.0 wt % in water, 20 b/s): 31.1 dynes/cm | surface tension ([2]; 1.0 wt % solution, 20 b/s): 31.1 dyne/cm | Dynamic Surface Tension ([2]; 2.0 wt % in water, 0.1 b/s): 27.4 dynes/cm | Dynamic Surface Tension ([2]; 2.0 wt % in water, 1 b/s): 28.4 dynes/cm | Dynamic Surface Tension ([2]; 2.0 wt % in water, 6 b/s): 29.3 dynes/cm | Dynamic Surface Tension ([2]; 2.0 wt % in water, 15 b/s): 30.7 dynes/cm | Dynamic Surface Tension ([2]; 2.0 wt % in water, 20 b/s): 30.3 dynes/cm | foaming of aqueous solutions (in words) [3]: almost no foam
SMILES: CCCCCCNC=O [n-HF, n-hexylformamide]

solubility limit [1]: 0.1 wt % | Dynamic Surface Tension ([2]; 0.03 wt % in water, 0.1 b/s): 42.8 dyne/cm | Dynamic Surface Tension ([2]; 0.03 wt % in water, 1 b/s): 46.1 dyne/cm | Dynamic Surface Tension ([2]; 0.03 wt % in water, 6 b/s): 52.2 dyne/cm | Dynamic Surface Tension ([2]; 0.03 wt % in water, 15 b/s): 58.5 dyne/cm | Dynamic Surface Tension ([2]; 0.03 wt % in water, 20 b/s): 60.4 dyne/cm | Dynamic Surface Tension ([2]; 0.05 wt % in water, 0.1 b/s): 35.6 dyne/cm | Dynamic Surface Tension ([2]; 0.05 wt % in water, 1 b/s): 37.7 dyne/cm | Dynamic Surface Tension ([2]; 0.05 wt % in water, 6 b/s): 42.5 dyne/cm | Dynamic Surface Tension ([2]; 0.05 wt % in water, 15 b/s): 48.6 dyne/cm | Dynamic Surface Tension ([2]; 0.05 wt % in water, 20 b/s): 50.5 dyne/cm | Dynamic Surface Tension ([2]; 0.07 wt % in water, 0.1 b/s): 30.9 dyne/cm | Dynamic Surface Tension ([2]; 0.07 wt % in water, 1 b/s): 32.5 dyne/cm | Dynamic Surface Tension ([2]; 0.07 wt % in water, 6 b/s): 36.3 dyne/cm | Dynamic Surface Tension ([2]; 0.07 wt % in water, 15 b/s): 41.5 dyne/cm | Dynamic Surface Tension ([2]; 0.07 wt % in water, 20 b/s): 43.7 dyne/cm | Dynamic Surface Tension ([2]; 0.1 wt % in water, 1 b/s): 26.6 dyne/cm | Dynamic Surface Tension ([2]; 0.1 wt % in water, 6 b/s): 28.7 dyne/cm | Dynamic Surface Tension ([2]; 0.1 wt % in water, 15 b/s): 34.4 dyne/cm
SMILES: CCCCCCCCNC=O [n-OF, n-octylformamide]
